Assays:
[1] = system: MDA-MB-231; test: MTT cell proliferation inhibition assay, MDA-MB-231; type: cell-based; settings: Homo sapiens, 72 h, 3 days
Experimental: Confluent cell cultures were treated with trypsin and resuspended at 5 × 10^4 cells/ml. To a 96-well plate, 100 μl of the 5 × 10^4 cells/ml solution were added and allowed to incubate at 37 °C, 5% CO2 for 24 h. Compounds were then added and allowed to incubate for 3 days. […] Following the 4-h incubation with 3-(4,5-dimethylthiazol-2-yl)-2,5-diphenyltetrazolium bromide, 100 μl of SDS (0.1 g/ml, 0.01 N HCl) was added, and 96-well plates were allowed to incubate for an additional 4 h. […] Treatment absorbances are taken as percentages of the average untreated absorbances and plotted against log(concentration) in GraphPad Prism 10 (GraphPad Software, Inc) to generate effective concentration values where 50% of the cells are not proliferating (EC50).

[2] = General tolerability dose escalation, intraperitoneal, CD-1 mice; type: in vivo
Experimental: After obtaining PK parameters of C5, we carried out a general tolerability dose escalation study via intraperitoneal injection to determine a maximum tolerated dose for future tumor efficacy studies (Fig. S3B). […] In CD-1 mice, dosing began at 5 mg/kg for 7 days. After 7 days, dosing was increased to 6 mg/kg; however, at this dose, there were acute respiratory effects and lethargy observed in the mice deeming it a toxic dose.
Dosing was increased to 6 mg/kg on day 8, but significant acute respiratory effects were observed indicating toxicity. Due to this acute effect, the study was terminated, and all mice were euthanized. The study was carried out following Institutional Animal Care and Use Committee protocol 2211-40546A.

[3] = Maximum tolerated dose study, oral dosing, 21 days; type: in vivo, severe combined immunodeficient mice
[4] = in vivo; settings: BALB/c, mouse; for bioavailability / Vd / clearance: plasma; for half-life: in vivo
Experimental: IV dosing allows for analysis under the assumption of total systemic absorption (Fig. S3A).
In a contract organization Medicilon, 35 male and 35 female BALB/c mice were randomized and put into two groups (n = 15) per sex for each route of administration (4 total groups). Extra mice were used for collection of blank plasma. […] Each time point utilized three mice per group, and each mouse had two blood draws. The blood samples were collected in K2EDTA tubes on ice, centrifuged at 6800g (6 min, 4 °C) to generate plasma samples. The plasma samples were stored below −70 °C until LC–MS/MS analysis. […] After data acquisition, noncompartmental analysis parameters were calculated by Pheonix WinNonlin 7.0.

SMILES: CN(Cc1ccc(C(F)(F)F)cc1)c1ccc2cc(C(=O)O)c(=O)oc2c1.NC(CO)(CO)CO [C5, 1,3-dihydroxy-2-(hydroxymethyl)propan-2-aminium 7-(methyl(4-(trifluoromethyl)benzyl)amino)-2-oxo-2H-chromene-3-carboxylate]
- EC50 [1]: > 1000 µM
- toxic dose (acute respiratory effects and lethargy) [2]: 6 mg/kg
- MTD at 7 days ([2]; female, mouse, in vivo, ip, once daily 7 days, read-out: maximum tolerated dose): 5 mg/kg
- MTD at 21 days ([3]; female, BALB/c, mouse, in vivo, oral, daily for 21 days): 40 mg/kg
- changes in body weight or behavior ([3]; oral 10, 20, 40 mg/kg daily for 21 days): not any significant changes
- bioavailability ([4]; both, po, 5 mg/kg): ~100%
- half-life ([4]; female, iv, 1 mg/kg): 3.15 h
- half-life ([4]; female, po, 5 mg/kg): 4.41 h
- Vd ([4]; female, iv, 1 mg/kg): 6.92 L/kg
- clearance ([4]; female, iv, 1 mg/kg): 26.6 mL/min/kg
- bioavailability ([4]; female, po, 5 mg/kg): 125%
- half-life ([4]; male, iv, 1 mg/kg): 3.65 h
- half-life ([4]; male, po, 5 mg/kg): 4.04 h
- Vd ([4]; male, iv, 1 mg/kg): 10.2 L/kg
- clearance ([4]; male, iv, 1 mg/kg): 34.3 mL/min/kg
- bioavailability ([4]; male, po, 5 mg/kg): 124%
